According to PMC8550792, “Evolution of kinase polypharmacology across HSP90 drug discovery” (Cell Chemical Biology, 2021):

Experiments:
Test in all cases: biochemical
Assay type in all cases: biochemical
382 unique human kinases [1] = target: T1, 382 unique human kinases (Homo sapiens, UniProt P51617); details: kinase IRAK1, compound 10 uM; for remaining activity at 10 µM: read-out: % Enzyme Activity (relative to DMSO controls)
T1 construct: purchased Reaction Biology (HotSpot contract assay)

382 unique human kinases [2] = target: T2, 382 unique human kinases (Homo sapiens, UniProt Q9BZL6); details: kinase PKD2/PRKD2, compound 10 uM; for remaining activity at 10 µM: read-out: % Enzyme Activity (relative to DMSO controls)
T2 construct: purchased Reaction Biology (HotSpot contract assay)
T2 sequence (Q9BZL6 1-878): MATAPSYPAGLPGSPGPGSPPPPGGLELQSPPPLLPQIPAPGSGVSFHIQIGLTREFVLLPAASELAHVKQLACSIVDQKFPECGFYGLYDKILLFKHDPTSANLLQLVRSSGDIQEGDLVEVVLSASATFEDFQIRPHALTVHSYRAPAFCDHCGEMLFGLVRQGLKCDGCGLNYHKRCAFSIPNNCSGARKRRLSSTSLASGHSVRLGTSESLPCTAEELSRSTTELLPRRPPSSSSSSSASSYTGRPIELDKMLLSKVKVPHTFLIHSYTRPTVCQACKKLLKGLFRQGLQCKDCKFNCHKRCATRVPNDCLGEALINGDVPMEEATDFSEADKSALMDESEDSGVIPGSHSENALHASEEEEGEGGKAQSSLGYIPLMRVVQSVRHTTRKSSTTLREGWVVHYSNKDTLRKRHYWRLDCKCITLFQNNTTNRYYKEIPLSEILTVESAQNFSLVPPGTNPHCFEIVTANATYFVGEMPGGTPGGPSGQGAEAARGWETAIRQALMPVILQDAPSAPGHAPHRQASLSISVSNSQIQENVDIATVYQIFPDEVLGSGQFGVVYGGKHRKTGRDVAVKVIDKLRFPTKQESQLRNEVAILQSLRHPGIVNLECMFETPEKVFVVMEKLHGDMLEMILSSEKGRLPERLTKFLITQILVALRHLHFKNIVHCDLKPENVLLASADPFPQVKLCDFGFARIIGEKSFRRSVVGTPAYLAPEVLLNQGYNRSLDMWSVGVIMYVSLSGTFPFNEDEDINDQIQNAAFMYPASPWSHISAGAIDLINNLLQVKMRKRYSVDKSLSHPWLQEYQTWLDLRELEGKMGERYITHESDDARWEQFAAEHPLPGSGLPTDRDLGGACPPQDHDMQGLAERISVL

382 unique human kinases [3] = target: T3, 382 unique human kinases (Homo sapiens, UniProt Q9H422); details: HIPK3, compound at 10 uM, duplicate values; for remaining activity at 10 µM: read-out: % Enzyme Activity (relative to DMSO controls)
T3 construct: purchased Reaction Biology (HotSpot contract assay)

382 unique human kinases [4] = target: T4, 382 unique human kinases (Homo sapiens, UniProt P10721, N822K/V560G); details: c-Kit (V560G/N822K), [ATP] 5 µM, compound 10 uM; for remaining activity at 10 µM: read-out: % Enzyme Activity (relative to DMSO controls)
T4 construct: purchased Reaction Biology (HotSpot contract assay)

382 unique human kinases [5] = target: T5, 382 unique human kinases (Homo sapiens, UniProt Q16832); details: DDR2, [ATP] 5 µM
T5 construct: purchased Reaction Biology (HotSpot contract assay)
T5 sequence (Q16832 22-855): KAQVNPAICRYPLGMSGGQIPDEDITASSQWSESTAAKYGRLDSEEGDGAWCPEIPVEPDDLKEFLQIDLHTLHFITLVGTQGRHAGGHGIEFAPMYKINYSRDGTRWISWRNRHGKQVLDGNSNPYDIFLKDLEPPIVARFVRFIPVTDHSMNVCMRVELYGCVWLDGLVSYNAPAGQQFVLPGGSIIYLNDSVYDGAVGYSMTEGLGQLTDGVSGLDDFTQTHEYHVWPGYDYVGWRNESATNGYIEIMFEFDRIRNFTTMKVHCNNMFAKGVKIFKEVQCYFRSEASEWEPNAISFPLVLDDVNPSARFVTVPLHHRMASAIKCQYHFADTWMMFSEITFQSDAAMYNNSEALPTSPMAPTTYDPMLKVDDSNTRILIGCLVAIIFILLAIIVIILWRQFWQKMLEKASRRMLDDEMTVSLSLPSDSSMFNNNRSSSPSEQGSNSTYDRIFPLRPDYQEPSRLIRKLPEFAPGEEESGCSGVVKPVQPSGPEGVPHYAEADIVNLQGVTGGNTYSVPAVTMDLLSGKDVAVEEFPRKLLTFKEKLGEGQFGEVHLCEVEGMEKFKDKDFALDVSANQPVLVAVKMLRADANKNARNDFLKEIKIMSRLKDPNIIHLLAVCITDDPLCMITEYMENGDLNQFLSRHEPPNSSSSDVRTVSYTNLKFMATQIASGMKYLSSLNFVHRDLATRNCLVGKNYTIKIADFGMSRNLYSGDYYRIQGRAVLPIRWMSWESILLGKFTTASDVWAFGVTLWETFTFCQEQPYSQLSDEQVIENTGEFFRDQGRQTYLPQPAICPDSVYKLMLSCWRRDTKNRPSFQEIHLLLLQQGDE

382 unique human kinases [6] = target: T6, 382 unique human kinases (Homo sapiens, UniProt Q6VAB6); details: KSR2, 10 uM; for remaining activity at 10 µM: read-out: % Enzyme Activity (relative to DMSO controls)
T6 sequence (Q6VAB6 1-950): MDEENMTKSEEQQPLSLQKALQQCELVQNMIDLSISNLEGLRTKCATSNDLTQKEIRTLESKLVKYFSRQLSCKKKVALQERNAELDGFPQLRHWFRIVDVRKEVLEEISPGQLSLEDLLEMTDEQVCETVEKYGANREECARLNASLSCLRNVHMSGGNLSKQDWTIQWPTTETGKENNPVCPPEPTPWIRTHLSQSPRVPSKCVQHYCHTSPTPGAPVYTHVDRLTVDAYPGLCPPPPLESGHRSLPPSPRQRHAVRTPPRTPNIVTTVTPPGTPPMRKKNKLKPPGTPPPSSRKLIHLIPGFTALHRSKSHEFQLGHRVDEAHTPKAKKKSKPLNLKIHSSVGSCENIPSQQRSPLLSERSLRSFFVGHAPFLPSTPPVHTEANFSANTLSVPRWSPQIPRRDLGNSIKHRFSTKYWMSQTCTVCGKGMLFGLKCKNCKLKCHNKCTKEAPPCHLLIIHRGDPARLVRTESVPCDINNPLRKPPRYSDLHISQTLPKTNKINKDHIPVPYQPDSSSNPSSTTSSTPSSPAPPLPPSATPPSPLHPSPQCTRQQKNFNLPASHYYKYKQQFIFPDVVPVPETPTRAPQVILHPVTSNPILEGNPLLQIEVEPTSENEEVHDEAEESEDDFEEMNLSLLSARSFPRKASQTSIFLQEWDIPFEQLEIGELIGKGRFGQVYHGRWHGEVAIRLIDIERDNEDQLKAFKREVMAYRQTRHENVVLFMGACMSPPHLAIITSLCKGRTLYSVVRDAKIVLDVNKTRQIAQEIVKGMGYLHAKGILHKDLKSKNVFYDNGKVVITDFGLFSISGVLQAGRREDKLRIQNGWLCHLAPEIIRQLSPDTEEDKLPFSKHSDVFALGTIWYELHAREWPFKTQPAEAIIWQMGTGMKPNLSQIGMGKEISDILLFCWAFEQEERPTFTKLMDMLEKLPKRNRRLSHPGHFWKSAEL

[7] = compound 10 uM, read-out: % Enzyme Activity (relative to DMSO controls)

T3 sequence (Q9H422 whole entry): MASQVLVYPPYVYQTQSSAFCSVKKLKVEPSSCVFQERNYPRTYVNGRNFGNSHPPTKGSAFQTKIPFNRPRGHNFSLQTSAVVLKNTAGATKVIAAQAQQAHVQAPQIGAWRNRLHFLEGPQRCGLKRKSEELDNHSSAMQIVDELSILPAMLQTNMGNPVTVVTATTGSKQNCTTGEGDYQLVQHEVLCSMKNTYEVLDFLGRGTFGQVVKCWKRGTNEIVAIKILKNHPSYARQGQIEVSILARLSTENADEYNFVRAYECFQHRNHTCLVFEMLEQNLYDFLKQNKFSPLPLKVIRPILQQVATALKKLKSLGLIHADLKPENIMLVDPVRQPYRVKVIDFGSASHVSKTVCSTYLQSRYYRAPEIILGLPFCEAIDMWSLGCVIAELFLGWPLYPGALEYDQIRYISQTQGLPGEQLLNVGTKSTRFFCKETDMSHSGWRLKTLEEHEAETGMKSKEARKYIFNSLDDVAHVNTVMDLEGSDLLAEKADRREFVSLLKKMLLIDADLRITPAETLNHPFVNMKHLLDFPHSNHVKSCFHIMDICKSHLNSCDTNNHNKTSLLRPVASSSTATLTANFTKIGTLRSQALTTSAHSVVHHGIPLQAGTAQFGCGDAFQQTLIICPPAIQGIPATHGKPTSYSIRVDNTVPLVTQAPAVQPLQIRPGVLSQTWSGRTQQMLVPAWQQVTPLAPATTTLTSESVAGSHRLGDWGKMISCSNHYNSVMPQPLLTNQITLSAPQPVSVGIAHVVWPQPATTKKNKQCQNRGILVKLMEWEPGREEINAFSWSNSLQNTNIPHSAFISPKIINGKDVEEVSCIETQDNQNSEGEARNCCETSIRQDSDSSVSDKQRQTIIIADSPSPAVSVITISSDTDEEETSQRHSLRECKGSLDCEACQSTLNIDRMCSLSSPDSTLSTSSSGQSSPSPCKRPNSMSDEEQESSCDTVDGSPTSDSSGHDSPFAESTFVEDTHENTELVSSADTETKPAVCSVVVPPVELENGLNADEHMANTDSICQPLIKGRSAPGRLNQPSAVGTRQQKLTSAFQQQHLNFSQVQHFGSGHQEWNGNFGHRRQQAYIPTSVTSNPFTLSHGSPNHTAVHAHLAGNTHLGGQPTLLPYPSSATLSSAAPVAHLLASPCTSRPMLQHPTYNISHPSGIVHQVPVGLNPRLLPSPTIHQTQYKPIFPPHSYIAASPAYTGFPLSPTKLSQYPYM
T1 sequence (P51617 whole entry): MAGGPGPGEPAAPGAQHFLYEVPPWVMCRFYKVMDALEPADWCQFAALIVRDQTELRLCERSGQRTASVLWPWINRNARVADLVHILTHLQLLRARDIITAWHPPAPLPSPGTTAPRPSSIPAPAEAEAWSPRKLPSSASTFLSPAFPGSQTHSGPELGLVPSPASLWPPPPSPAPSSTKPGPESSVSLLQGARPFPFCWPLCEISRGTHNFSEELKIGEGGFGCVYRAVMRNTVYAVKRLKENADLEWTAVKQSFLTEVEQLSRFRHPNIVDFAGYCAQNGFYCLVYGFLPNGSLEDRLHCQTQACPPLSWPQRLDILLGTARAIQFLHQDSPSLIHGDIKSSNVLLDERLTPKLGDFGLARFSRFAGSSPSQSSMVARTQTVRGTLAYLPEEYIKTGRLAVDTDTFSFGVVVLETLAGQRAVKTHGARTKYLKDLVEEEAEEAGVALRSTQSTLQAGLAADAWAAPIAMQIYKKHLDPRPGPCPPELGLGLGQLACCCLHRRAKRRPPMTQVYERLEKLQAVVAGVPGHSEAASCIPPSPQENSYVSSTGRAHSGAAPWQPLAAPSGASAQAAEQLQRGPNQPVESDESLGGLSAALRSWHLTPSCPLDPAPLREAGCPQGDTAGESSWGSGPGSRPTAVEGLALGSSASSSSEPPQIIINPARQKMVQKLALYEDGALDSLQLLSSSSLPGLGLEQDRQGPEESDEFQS
T4 sequence (P10721 26-976 V560G/N822K): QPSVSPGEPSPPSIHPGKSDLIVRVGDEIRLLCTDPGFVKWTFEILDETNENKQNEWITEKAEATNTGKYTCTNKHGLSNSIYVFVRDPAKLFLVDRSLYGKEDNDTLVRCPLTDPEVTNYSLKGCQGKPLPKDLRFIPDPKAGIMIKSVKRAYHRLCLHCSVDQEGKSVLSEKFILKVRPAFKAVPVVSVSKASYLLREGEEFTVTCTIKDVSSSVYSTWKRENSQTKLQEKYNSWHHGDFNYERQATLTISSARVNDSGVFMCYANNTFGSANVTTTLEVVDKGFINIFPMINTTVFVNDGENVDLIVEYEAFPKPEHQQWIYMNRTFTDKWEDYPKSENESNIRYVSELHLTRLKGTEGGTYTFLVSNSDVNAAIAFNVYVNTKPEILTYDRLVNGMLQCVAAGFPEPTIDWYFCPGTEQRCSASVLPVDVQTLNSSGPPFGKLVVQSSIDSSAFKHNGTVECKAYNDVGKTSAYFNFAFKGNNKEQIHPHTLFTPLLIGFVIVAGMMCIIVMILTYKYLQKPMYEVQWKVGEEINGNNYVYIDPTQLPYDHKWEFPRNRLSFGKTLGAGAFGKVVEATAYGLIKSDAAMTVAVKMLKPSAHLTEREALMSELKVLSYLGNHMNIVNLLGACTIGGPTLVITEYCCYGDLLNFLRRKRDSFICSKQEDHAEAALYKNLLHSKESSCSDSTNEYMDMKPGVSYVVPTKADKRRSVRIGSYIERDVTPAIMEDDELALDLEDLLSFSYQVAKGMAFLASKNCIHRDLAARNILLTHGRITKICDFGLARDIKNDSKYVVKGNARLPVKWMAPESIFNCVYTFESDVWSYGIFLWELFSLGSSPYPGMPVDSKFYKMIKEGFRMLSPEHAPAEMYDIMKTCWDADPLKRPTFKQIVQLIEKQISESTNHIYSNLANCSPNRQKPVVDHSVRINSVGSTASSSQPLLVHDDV

Row | Structure (SMILES) | remaining activity at 10 µM (382 unique human kinases [1]) [%] | remaining activity at 10 µM (382 unique human kinases [2]) [%] | remaining activity at 10 µM (382 unique human kinases [3]) [%] | % Enzyme Activity (relative to DMSO controls) (382 unique human kinases [4]) [%] | remaining activity at 10 µM (382 unique human kinases [4]) [%] | % Enzyme Activity (relative to DMSO controls) (382 unique human kinases [5]; compound 10 uM) [%] | remaining activity at 10 µM (382 unique human kinases [5]; [7]) [%] | % Enzyme Activity (relative to DMSO controls) (382 unique human kinases [6]) [%] | remaining activity at 10 µM (382 unique human kinases [6]) [%] | % Enzyme Activity (relative to DMSO controls) (382 unique human kinases [1]) [%] | % Enzyme Activity (relative to DMSO controls) (382 unique human kinases [2]) [%] | % Enzyme Activity (relative to DMSO controls) (382 unique human kinases [3]) [%] | remaining activity at 1 µM (382 unique human kinases [5]; compound 1 uM, read-out: % Enzyme Activity (relative to DMSO controls)) [%]
1 | CC(C)c1cc(-c2n[nH]c(=O)n2-c2ccc3c(ccn3C)c2)c(O)cc1O [Ganetespib (STA9090)] | 102 | 87 | 111 | – | – | – | – | – | – | – | – | – | –
2 | CCNC(=O)c1noc(-c2cc(C(C)C)c(O)cc2O)c1-c1ccc(CN2CCOCC2)cc1 [Luminespib] | – | – | – | 75.80 | 76.2 | 105.89 | 107 | 96.02 | 96.3 | – | – | – | –
3 | CCNC(=O)c1noc(-c2cc(C(C)C)c(O)cc2O)c1-c1ccc(CN2CCOCC2)cc1 [Luminespib (AUY-922)] | 105 | 99.3 | 108 | – | – | – | – | – | – | 104.17 | 97.40 | 106.96 | –
4 | CC(C)c1cc(-c2n[nH]c(=O)n2-c2ccc3c(ccn3C)c2)c(O)cc1O [Ganetespib] | – | – | – | – | 41.8 | – | 14.5 | – | 94.1 | – | – | – | 51.9
